Reference: US12419877B2, “Solid forms of {[5-(3-chlorophenyl)-3-hydroxypyridine-2-carbonyl]amino}acetic acid, compositions, and uses thereof” (Akebia Therapeutics, Inc., priority 2013, dated 2025)
In brackets after ≈: the same amount, converted by molar mass. Where two headings read alike, the source gives them in different places.

What was measured:
[1] = Solubility experiments (approximate solubility by solvent aliquot addition); type: physicochemical; conditions: thermodynamic from solid
Experimental: Approximately 20 mg of Form A of Compound (1) was placed in each of 48 vials and 5 volume aliquots of the appropriate solvent systems were added to the appropriate vial. Between each addition, the mixture was checked for dissolution and if no dissolution was apparent, the mixture was warmed to ca. 50° C. and checked again. This procedure was continued until dissolution was observed or until 100 volumes of solvent had been added.

[2] = Dynamic Vapour Sorption (DVS) with XRPD re-analysis; type: physicochemical
Experimental: Dynamic Vapour Sorption (DVS) was performed on a DVS-1 dynamic vapour sorption balance by Surface Measurement Systems. Approximately 10-20 mg of sample was loaded into a wire mesh vapour sorption balance pan of the balance. The sample was subjected to a ramping profile from 20-90% relative humidity (RH) in 10% increments, maintaining the sample at each step until a stable weight had been achieved (99.5% step completion) or 1000 minutes had elapsed. After completion of the sorption cycle, the sample was dried using the same procedure, but all the way down to 0% RH and finally taken back to the starting point of 20% RH. The weight change during the sorption/desorption cycles were plotted, allowing for the hygroscopic nature of the sample to be determined. Following the DVS analysis, the solid was re-analysed by XRPD in order to determine whether there had been any change in physical form.

- solubility ([1]; organic solvent or mixture, Solvent: Diisopropyl ether (DIPE), ca. 50° C., read-out: Solubility (mg/mL) (ca. 50° C.)): < 10 mg/mL
- solubility ([1]; organic solvent or mixture, Solvent: Dimethyl sulfoxide (DMSO), RT (ca. 22° C.), read-out: Solubility (mg/mL) RT (ca. 22° C.)): > 200 mg/mL
- solubility ([1]; organic solvent or mixture, Solvent: Dimethyl sulfoxide (DMSO), ca. 50° C., read-out: Solubility (mg/mL) (ca. 50° C.)): > 200 mg/mL
- solubility ([1]; organic solvent or mixture, Solvent: Dimethylacetamide (DMA), RT (ca. 22° C.), read-out: Solubility (mg/mL) RT (ca. 22° C.)): > 200 mg/mL
- solubility ([1]; organic solvent or mixture, Solvent: Dimethylacetamide (DMA), ca. 50° C., read-out: Solubility (mg/mL) (ca. 50° C.)): > 200 mg/mL
- solubility ([1]; organic solvent or mixture, Solvent: Dimethylformamide (DMF), RT (ca. 22° C.), read-out: Solubility (mg/mL) RT (ca. 22° C.)): > 200 mg/mL
- solubility ([1]; organic solvent or mixture, Solvent: Dimethylformamide (DMF), ca. 50° C., read-out: Solubility (mg/mL) (ca. 50° C.)): > 200 mg/mL
- solubility ([1]; organic solvent or mixture, Solvent: EtOAc/Cyclohexane (1:2), ca. 50° C., read-out: Solubility (mg/mL) (ca. 50° C.)): < 10 mg/mL
- solubility ([1]; organic solvent or mixture, Solvent: EtOAc/Toluene (1:2), RT (ca. 22° C.), read-out: Solubility (mg/mL) RT (ca. 22° C.)): < 14 mg/mL
- solubility ([1]; organic solvent or mixture, Solvent: EtOAc/Toluene (1:2), ca. 50° C., read-out: Solubility (mg/mL) (ca. 50° C.)): 14 mg/mL (≈ 45.6 mM)
- solubility ([1]; organic solvent or mixture, Solvent: Ethanol (EtOH), RT (ca. 22° C.), read-out: Solubility (mg/mL) RT (ca. 22° C.)): 34 mg/mL (≈ 111 mM)
- solubility ([1]; organic solvent or mixture, Solvent: Ethanol (EtOH), ca. 50° C., read-out: Solubility (mg/mL) (ca. 50° C.)): > 34 mg/mL
- solubility ([1]; organic solvent or mixture, Solvent: Ethyl acetate (EtOAc), RT (ca. 22° C.), read-out: Solubility (mg/mL) RT (ca. 22° C.)): < 41 mg/mL
- solubility ([1]; organic solvent or mixture, Solvent: Ethyl acetate (EtOAc), ca. 50° C., read-out: Solubility (mg/mL) (ca. 50° C.)): 41 mg/mL (≈ 134 mM)
- solubility ([1]; organic solvent or mixture, Solvent: Ethylene glycol, RT (ca. 22° C.), read-out: Solubility (mg/mL) RT (ca. 22° C.)): < 10 mg/mL
- solubility ([1]; organic solvent or mixture, Solvent: Ethylene glycol, ca. 50° C., read-out: Solubility (mg/mL) (ca. 50° C.)): < 10 mg/mL
- solubility ([1]; organic solvent or mixture, Solvent: Heptane, RT (ca. 22° C.), read-out: Solubility (mg/mL) RT (ca. 22° C.)): < 10 mg/mL
- solubility ([1]; organic solvent or mixture, Solvent: Heptane, ca. 50° C., read-out: Solubility (mg/mL) (ca. 50° C.)): < 10 mg/mL
- solubility ([1]; organic solvent or mixture, Solvent: Isobutyl acetate (iBuOAc), RT (ca. 22° C.), read-out: Solubility (mg/mL) RT (ca. 22° C.)): < 20 mg/mL
- solubility ([1]; organic solvent or mixture, Solvent: Isobutyl acetate (iBuOAc), ca. 50° C., read-out: Solubility (mg/mL) (ca. 50° C.)): 20 mg/mL (≈ 65.2 mM)
- solubility ([1]; organic solvent or mixture, Solvent: Isopropyl acetate (iPrOAc), RT (ca. 22° C.), read-out: Solubility (mg/mL) RT (ca. 22° C.)): < 26 mg/mL
- solubility ([1]; organic solvent or mixture, Solvent: Isopropyl acetate (iPrOAc), ca. 50° C., read-out: Solubility (mg/mL) (ca. 50° C.)): 26 mg/mL (≈ 84.8 mM)
- solubility ([1]; organic solvent or mixture, Solvent: MeOH/Water (1%), RT (ca. 22° C.), read-out: Solubility (mg/mL) RT (ca. 22° C.)): < 40 mg/mL
- solubility ([1]; organic solvent or mixture, Solvent: MeOH/Water (1%), ca. 50° C., read-out: Solubility (mg/mL) (ca. 50° C.)): 40 mg/mL (≈ 130 mM)
- solubility ([1]; organic solvent or mixture, Solvent: MeOH/Water (20%), RT (ca. 22° C.), read-out: Solubility (mg/mL) RT (ca. 22° C.)): < 10 mg/mL
- solubility ([1]; organic solvent or mixture, Solvent: Methanol (MeOH), RT (ca. 22° C.), read-out: Solubility (mg/mL) RT (ca. 22° C.)): < 51 mg/mL
- solubility ([1]; organic solvent or mixture, Solvent: Methanol (MeOH), ca. 50° C., read-out: Solubility (mg/mL) (ca. 50° C.)): 51 mg/mL (≈ 166 mM)
- solubility ([1]; organic solvent or mixture, Solvent: Methyl acetate (MeOAc), RT (ca. 22° C.), read-out: Solubility (mg/mL) RT (ca. 22° C.)): < 68 mg/mL
- solubility ([1]; organic solvent or mixture, Solvent: Methyl acetate (MeOAc), ca. 50° C., read-out: Solubility (mg/mL) (ca. 50° C.)): 68 mg/mL (≈ 222 mM)
- solubility ([1]; organic solvent or mixture, Solvent: Methyl ethyl ketone (MEK), RT (ca. 22° C.), read-out: Solubility (mg/mL) RT (ca. 22° C.)): < 100 mg/mL
- solubility ([1]; organic solvent or mixture, Solvent: Methyl ethyl ketone (MEK), ca. 50° C., read-out: Solubility (mg/mL) (ca. 50° C.)): 100 mg/mL (≈ 326 mM)
- solubility ([1]; organic solvent or mixture, Solvent: Methyl isobutyl ketone (MIBK), RT (ca. 22° C.), read-out: Solubility (mg/mL) RT (ca. 22° C.)): < 34 mg/mL
- solubility ([1]; organic solvent or mixture, Solvent: Methyl isobutyl ketone (MIBK), ca. 50° C., read-out: Solubility (mg/mL) (ca. 50° C.)): 34 mg/mL (≈ 111 mM)
- solubility ([1]; organic solvent or mixture, Solvent: N-methyl-2-pyrrolidone (NMP), RT (ca. 22° C.), read-out: Solubility (mg/mL) RT (ca. 22° C.)): > 200 mg/mL
- solubility ([1]; organic solvent or mixture, Solvent: N-methyl-2-pyrrolidone (NMP), ca. 50° C., read-out: Solubility (mg/mL) (ca. 50° C.)): > 200 mg/mL
- solubility ([1]; organic solvent or mixture, Solvent: Nitromethane, RT (ca. 22° C.), read-out: Solubility (mg/mL) RT (ca. 22° C.)): < 10 mg/mL
- solubility ([1]; organic solvent or mixture, Solvent: Nitromethane, ca. 50° C., read-out: Solubility (mg/mL) (ca. 50° C.)): < 10 mg/mL
- solubility ([1]; organic solvent or mixture, Solvent: Tetrahydrofuran (THF), RT (ca. 22° C.), read-out: Solubility (mg/mL) RT (ca. 22° C.)): > 200 mg/mL
- solubility ([1]; organic solvent or mixture, Solvent: Tetrahydrofuran (THF), ca. 50° C., read-out: Solubility (mg/mL) (ca. 50° C.)): > 200 mg/mL
- solubility ([1]; organic solvent or mixture, Solvent: Toluene, RT (ca. 22° C.), read-out: Solubility (mg/mL) RT (ca. 22° C.)): < 10 mg/mL
- solubility ([1]; organic solvent or mixture, Solvent: Toluene, ca. 50° C., read-out: Solubility (mg/mL) (ca. 50° C.)): < 10 mg/mL
- solubility ([1]; organic solvent or mixture, Solvent: Trifluoroethanol (TFE), RT (ca. 22° C.), read-out: Solubility (mg/mL) RT (ca. 22° C.)): < 10 mg/mL
- solubility ([1]; organic solvent or mixture, Solvent: Trifluoroethanol (TFE), ca. 50° C., read-out: Solubility (mg/mL) (ca. 50° C.)): < 10 mg/mL
- solubility ([1]; organic solvent or mixture, Solvent: methyl tert-butyl ether (MTBE), RT (ca. 22° C.), read-out: Solubility (mg/mL) RT (ca. 22° C.)): 14 mg/mL (≈ 45.6 mM)
- solubility ([1]; organic solvent or mixture, Solvent: methyl tert-butyl ether (MTBE), ca. 50° C., read-out: Solubility (mg/mL) (ca. 50° C.)): > 14 mg/mL
- solubility ([1]; Solvent: Water, RT (ca. 22° C.), read-out: Solubility (mg/mL) RT (ca. 22° C.)): < 10 mg/mL
- solubility ([1]; Solvent: Water, ca. 50° C., read-out: Solubility (mg/mL) (ca. 50° C.)): < 10 mg/mL
- water sorption at 90% RH ([2]; DVS, 90% RH): 0.13%
- XRPD analysis following DVS (change in physical form) ([2]; after DVS sorption/desorption cycle): no change in form
- hygroscopicity (DVS) ([2]; judged from water sorption at 90% RH): non-hygroscopic
Structure (SMILES): O=C(O)CNC(=O)c1ncc(-c2cccc(Cl)c2)cc1O [Form A of Compound (I), {[5-(3-chlorophenyl)-3-hydroxypyridine-2-carbonyl]amino}acetic acid]
